Columns and labels:
Assay type in all cases: cell-based, opossum
DPPIV = assay: Colorimetric DPPIV enzyme assay with glycylproline p-nitroanilide tosylate as substrate in OKP cells; conditions: 1 mM Diprotin A
Experimental: (§1) The concentration dependence for Diprotin A inhibition of DPPIV activity was first evaluated. […] Diprotin A inhibited EIPA-sensitive Na/H exchange activity by 36.7±5.3%. To test the specificity of this inhibition, activity of another brush border transport process, Cl^−-formate exchange, measured as Cl^− gradient-stimulated, DIDS-sensitive uptake of 14C-formate was assayed.

Cl-formate exchange = assay: Cl- gradient-stimulated, DIDS-sensitive 14C-formate uptake (Cl-formate exchange) in OKP cells; conditions: Diprotin A
Experimental: as §1

NHE3 = assay: 22Na uptake assay of EIPA-sensitive Na/H exchange (NHE3) activity in OKP cells; conditions: 1 mM Diprotin A, 20 min pre-incubation in NH3/NH4+ buffer pH 7.4
Description: As an initial approach to examine the physiological role of the association of DPPIV with NHE3, Diprotin A, a specific competitive inhibitor that binds to the active site of DPPIV, affects NHE3 activity in OKP cells was studied. OKP is a line of opossum proximal tubule cells that has transport properties very similar to the native proximal tubule and is therefore commonly used as an in vitro model for the mammalian proximal tubule.
as §1

Ile-Pro-Ile [Diprotin A]
inhibition of DPPIV activity in OKP cells (DPPIV): completely inhibited | effect on Cl-formate exchange activity (Cl-formate exchange): no significant effect | inhibition of EIPA-sensitive Na/H exchange activity (NHE3): 36.7±5.3%
